Results as given in paper PMC7872314, “Modeling Bioavailable Concentrations in Zebrafish Cell Lines and Embryos Increases the Correlation of Toxicity Potencies across Test Systems” (Environmental Science & Technology, 2020).
Where two headings read alike, the source gives them in different places.

Tests used:
[1] = system: ZFL (hepatocytes) cell line; assay: cells; assay type: cell-based, zebrafish (Danio rerio); conditions: Danio rerio, Hepatocyte
[2] = system: ZF4 (fibroblasts) cell line; assay: Neutral red, fluorescence (NRf), AB/CFDA/NR multiplex, lysosome stability; assay type: cell-based, zebrafish (Danio rerio); conditions: Danio rerio, Fibroblast
[3] = system: ZF4 (fibroblasts) cell line; assay: alamarBlue (AB) endpoint of AB/CFDA/NR multiplex, cellular respiration; assay type: cell-based, zebrafish (Danio rerio); conditions: Danio rerio, Fibroblast
[4] = system: ZF4 (fibroblasts) cell line; assay: BCA assay (MTS/BCA multiplex), protein amount; assay type: cell-based, zebrafish (Danio rerio); conditions: Danio rerio, Fibroblast
[5] = system: ZFL (hepatocytes) cell line; assay: cells; assay type: cell-based, zebrafish (Danio rerio); conditions: Danio rerio, Hepatocyte; remark: listed apart in the source
[6] = system: ZF4 (fibroblasts) cell line; assay: MTS assay (MTS/BCA multiplex), NAD(P)H metabolism; assay type: cell-based, zebrafish (Danio rerio); conditions: Danio rerio, Fibroblast
[7] = system: ZFL (hepatocytes) cell line; assay: cells; assay type: cell-based, zebrafish (Danio rerio); conditions: Danio rerio, Hepatocyte; remark: listed apart in the source
[8] = system: ZFL (hepatocytes) cell line; assay: cells; assay type: cell-based, zebrafish (Danio rerio); conditions: Danio rerio, Hepatocyte; remark: listed apart in the source
[9] = system: ZFL (hepatocytes) cell line; assay: cells; assay type: cell-based, zebrafish (Danio rerio); conditions: Danio rerio, Hepatocyte; remark: listed apart in the source
[10] = system: ZFL (hepatocytes) cell line; assay: cells; assay type: cell-based, zebrafish (Danio rerio); conditions: Danio rerio, Hepatocyte; remark: listed apart in the source
[11] = system: ZFL (hepatocytes) cell line; assay: cells; assay type: cell-based, zebrafish (Danio rerio); conditions: Danio rerio, Hepatocyte; remark: listed apart in the source
[12] = system: ZF4 (fibroblasts) cell line; assay: Neutral red, absorbance (NRa), AB/CFDA/NR multiplex, lysosome stability; assay type: cell-based, zebrafish (Danio rerio); conditions: Danio rerio, Fibroblast
[13] = system: ZF4 (fibroblasts) cell line; assay: CFDA endpoint of AB/CFDA/NR multiplex, membrane stability; assay type: cell-based, zebrafish (Danio rerio); conditions: Danio rerio, Fibroblast
[14] = system: zebrafish embryos; design: method as in earlier work; conditions: nominal, cited from earlier work
[15] = system: ZF4 (fibroblasts) cell line; assay: ATP assay (ATP/LDH multiplex), ATP metabolism; assay type: cell-based, zebrafish (Danio rerio); conditions: Danio rerio, Fibroblast
[16] = ref Comptox, PubChem or DrugBank; cited from earlier work
[17] = system: diverse mammalian cell assay results; design: method as in https://comptox.epa.gov/dashboard/; conditions: COMPTOX; ref https://comptox.epa.gov/dashboard/; read-out: median AC50; cited from earlier work
[18] = system: zebrafish embryos; assay: animal or person; assay type: in vivo, zebrafish (Danio rerio); conditions: for EC50: Danio rerio
[19] = system: zebrafish cell lines vs zebrafish embryo; assay: Potency ratios IC50;x/EC50;x (cytotoxicity assays vs mFET); design: species or system zebrafish (Danio rerio)
[20] = system: ZF4 and ZFL cell lines; assay: Cytotoxicity assays, all endpoints, both cell lines (mean/range); assay type: cell-based, zebrafish (Danio rerio); conditions: 48 h, mean of all cytotoxicity endpoints (without LDH) in ZF4 and ZFL

COC(=O)Nc1nc2ccc([S+]([O-])c3ccccc3)cc2[nH]1 (stereo not drawn) [Oxfendazole, oxfendazole] showed an IC50 ([1]; NR-fluo - ZFL, log10 of IC50, read-out: LogIC50 (converted)) of 7.37 µM, an IC50 ([1]; NR-fluo - ZFL, read-out: IC50) of 7.37 µM and an IC50 ([1]; ZFL, 48 h exposure, nominal, log10, read-out: logIC50 (log10 IC50;nom) NRf (converted)) of 7.41 µM. For the same molecule, the IC50 ([1]; ZFL, 48 h exposure, nominal, read-out: IC50;nom NRf) was 7.37 µM, the IC50 ([2]; NR-fluo - ZF4, log10 of IC50, read-out: LogIC50 (converted)) was 54.3 µM and the IC50 ([2]; NR-fluo - ZF4, read-out: IC50) was 54.3 µM. It also gave an IC50 ([2]; ZF4, 48 h exposure, nominal, log10, read-out: logIC50 (log10 IC50;nom) NRf (converted)) of 53.7 µM, an IC50 ([2]; ZF4, 48 h exposure, nominal, read-out: IC50;nom NRf) of 54.3 µM and an IC50 ([3]; AB - ZF4, log10 of IC50, read-out: LogIC50 (converted)) of 124 µM. For the same molecule, the IC50 ([3]; AB - ZF4, read-out: IC50) was 124 µM, the IC50 ([3]; ZF4, 48 h exposure, nominal, log10, read-out: logIC50 (log10 IC50;nom) AB (converted)) was 123 µM and the IC50 ([3]; ZF4, 48 h exposure, nominal, read-out: IC50;nom AB) was 124 µM. For the same molecule, the IC50 ([4]; BCA - ZF4, log10 of IC50, read-out: LogIC50 (converted)) was 6.43 µM, the IC50 ([4]; BCA - ZF4, read-out: IC50) was 6.43 µM and the IC50 ([4]; ZF4, 48 h exposure, nominal, log10, read-out: logIC50 (log10 IC50;nom) BCA (converted)) was 6.46 µM. For the same molecule, the IC50 ([4]; ZF4, 48 h exposure, nominal, read-out: IC50;nom BCA) was 6.43 µM, the IC50 ([5]; NR-abs - ZFL, log10 of IC50, read-out: LogIC50 (converted)) was 8.93 µM and the IC50 ([5]; NR-abs - ZFL, read-out: IC50) was 8.93 µM. It also gave an IC50 ([5]; ZFL, 48 h exposure, nominal, log10, read-out: logIC50 (log10 IC50;nom) NRa (converted)) of 8.91 µM, an IC50 ([5]; ZFL, 48 h exposure, nominal, read-out: IC50;nom NRa) of 8.93 µM and an IC50 ([6]; MTS - ZF4, log10 of IC50, read-out: LogIC50 (converted)) of 20.4 µM. The IC50 ([6]; MTS - ZF4, read-out: IC50) was 20.4 µM, the IC50 ([6]; ZF4, 48 h exposure, nominal, log10, read-out: logIC50 (log10 IC50;nom) MTS (converted)) was 20.4 µM and the IC50 ([6]; ZF4, 48 h exposure, nominal, read-out: IC50;nom MTS) was 20.4 µM. The IC50 ([7]; CFDA - ZFL, log10 of IC50, read-out: LogIC50 (converted)) was 320 µM, the IC50 ([7]; CFDA - ZFL, read-out: IC50) was 320 µM and the IC50 ([7]; ZFL, 48 h exposure, nominal, log10, read-out: logIC50 (log10 IC50;nom) CFDA (converted)) was 324 µM. For the same molecule, the IC50 ([7]; ZFL, 48 h exposure, nominal, read-out: IC50;nom CFDA) was 320 µM, the IC50 ([8]; BCA - ZFL, log10 of IC50, read-out: LogIC50 (converted)) was 0.058 µM and the IC50 ([8]; BCA - ZFL, read-out: IC50) was 0.058 µM. For the same molecule, the IC50 ([8]; ZFL, 48 h exposure, nominal, log10, read-out: logIC50 (log10 IC50;nom) BCA (converted)) was 0.0575 µM, the IC50 ([8]; ZFL, 48 h exposure, nominal, read-out: IC50;nom BCA) was 0.058 µM and the IC50 ([9]; MTS - ZFL, log10 of IC50, read-out: LogIC50 (converted)) was 9.73 µM. It also gave an IC50 ([9]; MTS - ZFL, read-out: IC50) of 9.73 µM, an IC50 ([9]; ZFL, 48 h exposure, nominal, log10, read-out: logIC50 (log10 IC50;nom) MTS (converted)) of 9.77 µM and an IC50 ([9]; ZFL, 48 h exposure, nominal, read-out: IC50;nom MTS) of 9.73 µM. For the same molecule, the IC50 ([10]; ATP - ZFL, log10 of IC50, read-out: LogIC50 (converted)) was 106 µM, the IC50 ([10]; ATP - ZFL, read-out: IC50) was 106 µM and the IC50 ([10]; ZFL, 48 h exposure, nominal, log10, read-out: logIC50 (log10 IC50;nom) ATP (converted)) was 105 µM. For the same molecule, the IC50 ([10]; ZFL, 48 h exposure, nominal, read-out: IC50;nom ATP) was 106 µM, the IC50 ([11]; AB - ZFL, log10 of IC50, read-out: LogIC50 (converted)) was 10.4 µM and the IC50 ([11]; AB - ZFL, read-out: IC50) was 10.4 µM. It also gave an IC50 ([11]; ZFL, 48 h exposure, nominal, log10, read-out: logIC50 (log10 IC50;nom) AB (converted)) of 10.5 µM, an IC50 ([11]; ZFL, 48 h exposure, nominal, read-out: IC50;nom AB) of 10.4 µM and an IC50 ([12]; NR-abs - ZF4, log10 of IC50, read-out: LogIC50 (converted)) of 58.6 µM. For the same molecule, the IC50 ([12]; NR-abs - ZF4, read-out: IC50) was 58.6 µM, the IC50 ([12]; ZF4, 48 h exposure, nominal, log10, read-out: logIC50 (log10 IC50;nom) NRa (converted)) was 58.9 µM and the IC50 ([12]; ZF4, 48 h exposure, nominal, read-out: IC50;nom NRa) was 58.6 µM. For the same molecule, the IC50 ([12]; ZF4 cell line, NRa endpoint, nominal, read-out: IC50;nom) was 18.5 µg/mL, the IC50 ([13]; CFDA - ZF4, log10 of IC50, read-out: LogIC50 (converted)) was 153 µM and the IC50 ([13]; CFDA - ZF4, read-out: IC50) was 153 µM. For the same molecule, the IC50 ([13]; ZF4, 48 h exposure, nominal, log10, read-out: logIC50 (log10 IC50;nom) CFDA (converted)) was 151 µM, the IC50 ([13]; ZF4, 48 h exposure, nominal, read-out: IC50;nom CFDA) was 153 µM and the EC50 ([14]; 144 hpf, converted, listed as Ox) was 21.6 µM. For the same molecule, the “logEC50 144 hpf” value ([14]; log10) was -4.666 M, the IC50 ([15]; ATP - ZF4, log10 of IC50, read-out: LogIC50 (converted)) was 144 µM and the IC50 ([15]; ATP - ZF4, read-out: IC50) was 144 µM. The IC50 ([15]; ZF4, 48 h exposure, nominal, log10, read-out: logIC50 (log10 IC50;nom) ATP (converted)) was 145 µM, the IC50 ([15]; ZF4, 48 h exposure, nominal, read-out: IC50;nom ATP) was 144 µM and the BCF [16] was 161. The Physiological charge [16] was 0, the “Water Solubility” value [16] was “insoluble” and the logKoa [16] was 9.57. The logKow [16] was 1.45, the “pKa (Strongest Acidic)” value [16] was 9.26 and the “pKa (Strongest Basic)” value [16] was 3.57. The “w_solubility (water solubility)” value [16] was 864 µM, the AC50 [17] was 0.34 µM and the “difference in toxicity (EC50;nom) between 48 hpf and 144 hpf” value ([18]; 48 hpf time point less sensitive than 144 hpf) was “approximately the same”. For the same molecule, the “log EC50;nom (mFET)” value ([18]; 48 hpf, nominal, log10, listed as Ox) was -4.607 M, the EC50 ([18]; 48 hpf, nominal, log10, read-out: log EC50;nom (mFET) (converted)) was 24.5 µM and the EC50 ([18]; 48 hpf, nominal, read-out: EC50;nom (embryo)) was 7.79 µg/mL. The EC50 ([18]; read-out: EC50 48hpf) was 24.7 µM, the EC50 ([18]; read-out: EC50;nom (mFET)) was 24.7 µM and the “potency ratio IC50;nom/EC50;nom (median)” value ([19]; median over cytotoxicity endpoints, nominal, 48 h cells / 48 hpf mFET) was 1.51. For the same molecule, the “difference in sensitivity between embryo (EC50;nom) and cells (IC50;nom)” value ([19]; nominal concentrations, higher potency in the mFET) was “equal nominal median concentrations between test systems”, the IC50 ([20]; Danio rerio, log10, read-out: Mean log IC50nom (converted)) was 23.4 µM and the “Mean log IC50nom” value ([20]; log10, listed as Ox) was -4.631 M.
